From PubChem BioAssay (NCI)
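In this assay, cells in 96-well plates receive the compound at five concentrations for 48 hours. Endpoints are linearly interpolated between the surrounding concentrations. The concentration for 50% growth inhibition is given as GI50. TGI marks complete inhibition of growth.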

Legend:
Assay in all cases: NCI-60 cell line screen, 48 h
M14 melanoma = tested on: M14 melanoma
DU-145 prostate = tested on: DU-145 prostate
HCT-15 colon = tested on: HCT-15 colon
OVCAR-8 ovarian = tested on: OVCAR-8 ovarian
OVCAR-5 ovarian = tested on: OVCAR-5 ovarian
SK-OV-3 ovarian = tested on: SK-OV-3 ovarian
SNB-75 CNS = tested on: SNB-75 CNS
UACC-62 melanoma = tested on: UACC-62 melanoma
PC-3 prostate = tested on: PC-3 prostate
ACHN renal = tested on: ACHN renal
SR leukemia = tested on: SR leukemia
HT29 colon = tested on: HT29 colon
EKVX NSCLC = tested on: EKVX NSCLC
IGROV1 ovarian = tested on: IGROV1 ovarian
A549 NSCLC = tested on: A549 NSCLC
U251 CNS = tested on: U251 CNS
NCI-H226 lung = tested on: NCI-H226 lung
HS 578T breast = tested on: HS 578T breast
HCT-116 colon = tested on: HCT-116 colon
OVCAR-3 ovarian = tested on: OVCAR-3 ovarian
RXF 393 renal = tested on: RXF 393 renal
HOP-92 NSCLC = tested on: HOP-92 NSCLC
NCI-H522 lung = tested on: NCI-H522 lung
RPMI-8226 leukemia = tested on: RPMI-8226 leukemia
SNB-19 CNS = tested on: SNB-19 CNS
MCF7 breast = tested on: MCF7 breast
SN12C renal = tested on: SN12C renal
SK-MEL-28 melanoma = tested on: SK-MEL-28 melanoma
COLO 205 colon = tested on: COLO 205 colon
MDA-MB-231 breast = tested on: MDA-MB-231 breast
CAKI-1 renal = tested on: CAKI-1 renal
UO-31 renal = tested on: UO-31 renal
MOLT-4 leukemia = tested on: MOLT-4 leukemia
MDA-MB-435 = tested on: MDA-MB-435
SF-539 CNS = tested on: SF-539 CNS
OVCAR-4 ovarian = tested on: OVCAR-4 ovarian
HL-60(TB) leukemia = tested on: HL-60(TB) leukemia
NCI-H23 lung = tested on: NCI-H23 lung
NCI/ADR-RES ovarian = tested on: NCI/ADR-RES ovarian
K-562 leukemia = tested on: K-562 leukemia
SF-268 CNS = tested on: SF-268 CNS
HCC-2998 colon = tested on: HCC-2998 colon
SW-620 colon = tested on: SW-620 colon
LOX IMVI melanoma = tested on: LOX IMVI melanoma
HOP-62 NSCLC = tested on: HOP-62 NSCLC
BT-549 breast = tested on: BT-549 breast
T-47D breast = tested on: T-47D breast
KM12 colon = tested on: KM12 colon
SK-MEL-5 melanoma = tested on: SK-MEL-5 melanoma
786-0 renal = tested on: 786-0 renal
UACC-257 melanoma = tested on: UACC-257 melanoma
CCRF-CEM leukemia = tested on: CCRF-CEM leukemia
TK-10 renal = tested on: TK-10 renal
A498 renal = tested on: A498 renal
SF-295 CNS = tested on: SF-295 CNS
NCI-H460 lung = tested on: NCI-H460 lung
SK-MEL-2 melanoma = tested on: SK-MEL-2 melanoma
MALME-3M melanoma = tested on: MALME-3M melanoma

SMILES: O=C(CCN1CCCN(c2cnc3ccccc3n2)CC1)c1csc2ccccc12
- GI50 (M14 melanoma): 19.8 µM
- TGI (M14 melanoma): 39.3 µM
- GI50 (DU-145 prostate): 16.6 µM
- TGI (DU-145 prostate): 32.4 µM
- GI50 (HCT-15 colon): 18.9 µM
- TGI (HCT-15 colon): 34.8 µM
- GI50 (OVCAR-8 ovarian): 21.6 µM
- TGI (OVCAR-8 ovarian): 48.4 µM
- GI50 (OVCAR-5 ovarian): 28.9 µM
- TGI (OVCAR-5 ovarian): > 100 µM
- GI50 (SK-OV-3 ovarian): > 100 µM
- TGI (SK-OV-3 ovarian): > 100 µM
- GI50 (SNB-75 CNS): 17.2 µM
- TGI (SNB-75 CNS): 31.6 µM
- GI50 (UACC-62 melanoma): 19.7 µM
- TGI (UACC-62 melanoma): 34.2 µM
- GI50 (PC-3 prostate): 21.3 µM
- TGI (PC-3 prostate): 50.6 µM
- GI50 (ACHN renal): 17.9 µM
- TGI (ACHN renal): 31.8 µM
- GI50 (SR leukemia): 24 µM
- TGI (SR leukemia): 56.7 µM
- GI50 (HT29 colon): 13 µM
- TGI (HT29 colon): 28.2 µM
- GI50 (EKVX NSCLC): 19.6 µM
- TGI (EKVX NSCLC): 38.7 µM
- GI50 (IGROV1 ovarian): 16.2 µM
- TGI (IGROV1 ovarian): 31.2 µM
- GI50 (A549 NSCLC): > 100 µM
- TGI (A549 NSCLC): > 100 µM
- GI50 (U251 CNS): 17.6 µM
- TGI (U251 CNS): 31.4 µM
- GI50 (NCI-H226 lung): 21.1 µM
- TGI (NCI-H226 lung): 38.5 µM
- GI50 (HS 578T breast): 20 µM
- TGI (HS 578T breast): 51.5 µM
- GI50 (HCT-116 colon): 16.5 µM
- TGI (HCT-116 colon): 30.1 µM
- GI50 (OVCAR-3 ovarian): 18.9 µM
- TGI (OVCAR-3 ovarian): 32.9 µM
- GI50 (RXF 393 renal): 19.4 µM
- TGI (RXF 393 renal): 37.5 µM
- GI50 (HOP-92 NSCLC): 15.8 µM
- TGI (HOP-92 NSCLC): 34 µM
- GI50 (NCI-H522 lung): 17.3 µM
- TGI (NCI-H522 lung): 31.7 µM
- GI50 (RPMI-8226 leukemia): 12.6 µM
- TGI (RPMI-8226 leukemia): 41.8 µM
- GI50 (SNB-19 CNS): 36.7 µM
- TGI (SNB-19 CNS): > 100 µM
- GI50 (MCF7 breast): 3.2 µM
- TGI (MCF7 breast): 16.4 µM
- GI50 (SN12C renal): 21.9 µM
- TGI (SN12C renal): 44.7 µM
- GI50 (SK-MEL-28 melanoma): 20.6 µM
- TGI (SK-MEL-28 melanoma): 37.1 µM
- GI50 (COLO 205 colon): 17.6 µM
- TGI (COLO 205 colon): 33.4 µM
- GI50 (MDA-MB-231 breast): 21.2 µM
- TGI (MDA-MB-231 breast): 37 µM
- GI50 (CAKI-1 renal): 17.8 µM
- TGI (CAKI-1 renal): 31.7 µM
- GI50 (UO-31 renal): 14.8 µM
- TGI (UO-31 renal): 28 µM
- GI50 (MOLT-4 leukemia): 26 µM
- TGI (MOLT-4 leukemia): 57.9 µM
- GI50 (MDA-MB-435): 18.1 µM
- TGI (MDA-MB-435): 32.2 µM
- GI50 (SF-539 CNS): 18.9 µM
- TGI (SF-539 CNS): 33.2 µM
- GI50 (OVCAR-4 ovarian): 18.5 µM
- TGI (OVCAR-4 ovarian): 35.1 µM
- GI50 (HL-60(TB) leukemia): 27.2 µM
- TGI (HL-60(TB) leukemia): 59.7 µM
- GI50 (NCI-H23 lung): 20.8 µM
- TGI (NCI-H23 lung): 46.7 µM
- GI50 (NCI/ADR-RES ovarian): 21.3 µM
- TGI (NCI/ADR-RES ovarian): 49.5 µM
- GI50 (K-562 leukemia): 20 µM
- TGI (K-562 leukemia): 48.6 µM
- GI50 (SF-268 CNS): 19.4 µM
- TGI (SF-268 CNS): 38.6 µM
- GI50 (HCC-2998 colon): 16.9 µM
- TGI (HCC-2998 colon): 33.2 µM
- GI50 (SW-620 colon): 17.4 µM
- TGI (SW-620 colon): 33.3 µM
- GI50 (LOX IMVI melanoma): 17.2 µM
- TGI (LOX IMVI melanoma): 31.3 µM
- GI50 (HOP-62 NSCLC): 28.1 µM
- TGI (HOP-62 NSCLC): 77.3 µM
- GI50 (BT-549 breast): 18.4 µM
- TGI (BT-549 breast): 32.3 µM
- GI50 (T-47D breast): 11 µM
- TGI (T-47D breast): 25.3 µM
- GI50 (KM12 colon): 16 µM
- TGI (KM12 colon): 29.4 µM
- GI50 (SK-MEL-5 melanoma): 16.2 µM
- TGI (SK-MEL-5 melanoma): 30 µM
- GI50 (786-0 renal): 18.4 µM
- TGI (786-0 renal): 32.3 µM
- GI50 (UACC-257 melanoma): 26.1 µM
- TGI (UACC-257 melanoma): 63.2 µM
- GI50 (CCRF-CEM leukemia): 12.5 µM
- TGI (CCRF-CEM leukemia): 63.1 µM
- GI50 (TK-10 renal): 16.1 µM
- TGI (TK-10 renal): 29.5 µM
- GI50 (A498 renal): 96.7 µM
- TGI (A498 renal): > 100 µM
- GI50 (SF-295 CNS): 58 µM
- TGI (SF-295 CNS): > 100 µM
- GI50 (NCI-H460 lung): 32.8 µM
- TGI (NCI-H460 lung): > 100 µM
- GI50 (SK-MEL-2 melanoma): 27.3 µM
- TGI (SK-MEL-2 melanoma): 76.5 µM
- GI50 (MALME-3M melanoma): 18 µM
- TGI (MALME-3M melanoma): 32.1 µM
